The subject of the experiment is Schistosoma mansoni adult worms (49-day-old). Description: Effect on adult schistosomes (49-day-old) in infected mice. Type of experiment: in vivo. To be noted: for % reduction of adult worms growth at day 49 after per os application of 400 mg/kg, TWR (%) / Adult worms day 49, per os 400 mg/kg, DEAD WORM (%): single 400 mg/kg per os. As to the method: Mice were infected with 100 Schistosoma mansoni cercariae on day 49 post-treatment. Each group was treated per os with OZ compounds at single doses of 200, 400, and 600 mg/kg. Untreated mice served as the control. All groups were killed 4 weeks after treatment and the liver and intestine were removed and separated. The liver and intestine were compressed and alive male and female worms could be seen and counted.

Where [1] appears, read: 49-day-old adults, total worm reduction rate.
Where [2] appears, read: percentage of dead worm in the liver.

`CC(=O)N1CCC2(CC1)OOC1(O2)C2CC3CC(C2)CC1C3` (stereo not drawn) [OZ49]: under setting [1], the “% reduction of adult worms growth at day 49 after per os application of 400 mg/kg, TWR (%)” value is listed as 17%. Moreover, under setting [2], the “Adult worms day 49, per os 400 mg/kg, DEAD WORM (%)” value was 10%.

Consider `c1ccc(C2(c3ccccn3)OOC3(O2)C2CC4CC(C2)CC3C4)nc1` (stereo not drawn) [OZ81], for which the “% reduction of adult worms growth at day 49 after per os application of 400 mg/kg, TWR (%)” value under setting [1] is on record as 28%. Besides, the “Adult worms day 49, per os 400 mg/kg, DEAD WORM (%)” value under setting [2] came out at 0%.

With `CC1(C)COC2(CCC3(CC2)OOC2(O3)C3CCCC2CCC3)OC1` (stereo not drawn) [OZ68], the “% reduction of adult worms growth at day 49 after per os application of 400 mg/kg, TWR (%)” value under setting [1] is 17%. Moreover, the “Adult worms day 49, per os 400 mg/kg, DEAD WORM (%)” value under setting [2] was 0%.

As for `O=C(CO)N1CCC2(CC1)OOC1(O2)C2CC3CC(C2)CC1C3` (stereo not drawn) [OZ83], under setting [1], the “% reduction of adult worms growth at day 49 after per os application of 400 mg/kg, TWR (%)” value is reported as 7%. For the same compound, under setting [2], the “Adult worms day 49, per os 400 mg/kg, DEAD WORM (%)” value is given as 19%.

As to `CCOC(=O)CC1CCC2(CC1)OOC1(O2)C2CC3CC(C2)CC1C3` (stereo not drawn) [OZ61], under setting [1], the “% reduction of adult worms growth at day 49 after per os application of 400 mg/kg, TWR (%)” value amounted to 8%. Moreover, the “Adult worms day 49, per os 400 mg/kg, DEAD WORM (%)” value under setting [2] was 21%.

Take `CCS(=O)(=O)N1CCC2(CC1)OOC1(O2)C2CC3CC(C2)CC1C3` (stereo not drawn) [OZ79]: under setting [1], the “% reduction of adult worms growth at day 49 after per os application of 400 mg/kg, TWR (%)” value is on record as 4%. For the same compound, the “Adult worms day 49, per os 400 mg/kg, DEAD WORM (%)” value under setting [2] was 0%.

For `c1ccc(C2CCC3(CC2)OOC2(O3)C3CCCC2CCC3)cc1` (stereo not drawn) [OZ67], the “% reduction of adult worms growth at day 49 after per os application of 400 mg/kg, TWR (%)” value under setting [1] came out at 38%. Also, under setting [2], the “Adult worms day 49, per os 400 mg/kg, DEAD WORM (%)” value is 0%.

`Clc1ccc(C2(c3ccc(Cl)cc3)OOC3(O2)C2CC4CC(C2)CC3C4)cc1` (stereo not drawn) [OZ43]: under setting [1], the “% reduction of adult worms growth at day 49 after per os application of 400 mg/kg, TWR (%)” value is 1%. For the same compound, the “Adult worms day 49, per os 400 mg/kg, DEAD WORM (%)” value under setting [2] came out at 0%.

`OC1(c2ccc(F)cc2)CCC2(CC1)OOC1(O2)C2CC3CC(C2)CC1C3` (stereo not drawn) [OZ76]: under setting [1], the “% reduction of adult worms growth at day 49 after per os application of 400 mg/kg, TWR (%)” value is reported as 32%. Also, the “Adult worms day 49, per os 400 mg/kg, DEAD WORM (%)” value under setting [2] came out at 0%.

`O=S1(=O)CCC2(CC1)OOC1(O2)C2CC3CC(C2)CC1C3` (stereo not drawn) [OZ50]: the “% reduction of adult worms growth at day 49 after per os application of 400 mg/kg, TWR (%)” value under setting [1] was found to be 12%. For the same compound, under setting [2], the “Adult worms day 49, per os 400 mg/kg, DEAD WORM (%)” value is reported as 4%.

As to `O=C(C1CCCCC1)N1CC(=O)N2CCc3ccccc3C2C1` (stereo not drawn) [PRAZIQUANTEL, praziquantel, reference compound], the “% reduction of adult worms growth at day 49 after per os application of 400 mg/kg, TWR (%)” value under setting [1] amounted to 93%. Also, the “Adult worms day 49, per os 400 mg/kg, DEAD WORM (%)” value under setting [2] came to 89%. Besides, the “% reduction of adult worms growth at day 49 after per os application of 600 mg/kg, TWR (%)” value (single 600 mg/kg per os, 49-day-old adults, total worm reduction rate) is 100/100%. Also, the “Adult worms day 49, per os 600 mg/kg, DEAD WORM (%)” value (single 600 mg/kg per os, percentage of dead worm in the liver) is 100/100%.

Source of the values: US6825230B2, “Spiro and dispiro 1,2,4-trixolane antimalarials” (Medicines for Malaria Venture MMV, priority 2002, dated 2004).
